The structures appear in SMILES notation. Non-standard residues stand in square brackets, D forms with d. Residues, ends and D or L forms follow the SMILES beside them. Tyr(3-NO2) = N[C@@H](Cc1ccc(O)c([N+](=O)[O-])c1)C(=O)O; 2Nal = N[C@@H](Cc1ccc2ccccc2c1)C(=O)O; Hyp = O=C(O)[C@@H]1C[C@@H](O)CN1; 3Pal = N[C@@H](Cc1cccnc1)C(=O)O; Tic = O=C(O)[C@@H]1Cc2ccccc2CN1; hLeu = CC(C)CC[C@H](N)C(=O)O; dNle = CCCC[C@@H](N)C(=O)O; Ac6c = NC1(C(=O)O)CCCCC1; Nle = CCCC[C@H](N)C(=O)O; Ac5c = NC1(C(=O)O)CCCC1; 2Abz = Nc1ccccc1C(=O)O

The target in the assay is T1, Der pI (Dermatophagoides pteronyssinus, UniProt P08176).
T1 construct: tissue SmithKline-Beecham, U.K (crude mite extract); host or cells: crude house dust mite extract
T1 sequence (P08176 99-320): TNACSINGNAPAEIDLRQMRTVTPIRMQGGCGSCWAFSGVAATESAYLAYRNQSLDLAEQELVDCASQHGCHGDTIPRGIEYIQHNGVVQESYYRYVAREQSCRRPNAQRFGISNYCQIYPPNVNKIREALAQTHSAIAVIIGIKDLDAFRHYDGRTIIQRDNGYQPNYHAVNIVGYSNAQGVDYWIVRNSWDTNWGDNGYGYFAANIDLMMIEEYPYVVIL
Put plainly: Der pI substrate assay with FRET peptides (fluorescence, Km, kcat/Km). Format: biochemical, house dust mite. Further details: key: NS indicates that the peptide was not hydrolysed by Der pI.; NM indicated that the peptide was a substrate for Der pI, but the Km was not measured.; NM^a indicates that the peptide was a substrate for Der pI, and its cleavage was followed by HPLC-MS showing hydrolysis to occur between-Nle-Ser-. Conditions: purified Der pI; peptides SEQ ID Nos. 1-76. Here is the method: Using the general techniques described above, the following compounds were prepared and assayed as potential substrates against Der pI purified as described above.
Each mixture of 20 compounds in the libraries of the apparatus described herein was screened at a concentration of 1.0 μM per compound in an assay against the cysteinyl protease Der pI.
Plate assays were carried out in 96 well plate format, using 0.1 ug of Der pI per 100 μL assay volume in each well and using 20 μM of the substrate. All assays were performed in Assay Buffer (AB; 50 mM potassium phosphate, pH 8.25 containing 1 mM ethylenediaminetetraacetic acid (EDTA) and 1 mM dithiothreitol (DTT). The Der pI enzyme is pre-activated by addition of DTT and this in incubated at room temperature for 5 min. prior to initiation of the assay. As an example for the screening methodology, each well contains a 5 μL of a 20 μM solution of the test compound in DMSO, 10 μL of a 200 μM aqueous solution of the substrate, 2, and 85 μL of Der pI in AB is added to initiate the reaction. Enzyme activity is monitored by fluorescence using 320 nm for excitation and 420 nm for the emission wavelengths using a Labsystems Fluroskan Ascent machine. Kinetic measurements were carried out using a Hitachi F-4500 Fluorescence Spectrophotometer.
As to `CC(C)CC[C@H](NC(=O)[C@H](C)NC(=O)C1(NC(=O)c2ccccc2N)CCCCC1)C(=O)N[C@@H](CO)C(=O)N[C@@H](Cc1ccc(O)c([N+](=O)[O-])c1)C(=O)N[C@@H](CC(=O)O)C(N)=O` [Abz-ACH-Ala-hLeu-Ser-Tyr(NO2)-Asp-NH2] (H-[2Abz][Ac6c]A[hLeu]S[Tyr(3-NO2)]D-NH2), the “substrate or not substrate for Der pI (symbols in Measured Km)” value (“substrate or not substrate for Der pI” below) is recorded as “NS”.

As to `CCCC[C@H](NC(=O)[C@H](C)NC(=O)c1ccccc1N)C(=O)N[C@@H](CO)C(=O)N[C@@H](Cc1ccc(O)c([N+](=O)[O-])c1)C(=O)N[C@@H](CC(=O)O)C(N)=O` [Abz-Ala-Nle-Ser-Tyr(NO2)-Asp-NH2] (H-[2Abz]A[Nle]S[Tyr(3-NO2)]D-NH2), the “substrate or not substrate for Der pI” value is on record as “NM”.

For the molecule `CC(C)CC[C@H](NC(=O)[C@H](C)NC(=O)[C@H](NC(=O)c1ccccc1N)C(C)C)C(=O)N[C@@H](CO)C(=O)N[C@@H](Cc1ccc(O)c([N+](=O)[O-])c1)C(=O)N[C@@H](CC(=O)O)C(N)=O` [Abz-DVal-Ala-hLeu-Ser-Tyr(NO2)-Asp-NH2] (H-[2Abz][dV]A[hLeu]S[Tyr(3-NO2)]D-NH2), the “substrate or not substrate for Der pI” value was “NS”.

For `CCCC[C@H](NC(=O)[C@H](C)NC(=O)[C@@H](NC(=O)[C@@H]1C[C@@H](O)CN1C(=O)c1ccccc1N)C(C)C)C(=O)N[C@@H](CO)C(=O)N[C@@H](Cc1ccc(O)c([N+](=O)[O-])c1)C(=O)N[C@@H](CC(=O)O)C(N)=O` [Abz-Hyp-Val-Ala-Nle-Ser-Tyr(NO2)-Asp-NH2] (H-[2Abz][Hyp]VA[Nle]S[Tyr(3-NO2)]D-NH2), the “substrate or not substrate for Der pI” value is “NS”.

Regarding `CCCC[C@H](NC(=O)[C@H](C)NC(=O)[C@@H](NC(=O)[C@H](CC(C)C)NC(=O)c1ccccc1N)C(C)C)C(=O)N[C@@H](CO)C(=O)N[C@@H](Cc1ccc(O)c([N+](=O)[O-])c1)C(=O)N[C@@H](CC(=O)O)C(N)=O` [Abz-Leu-Val-Ala-Nle-Ser-Tyr(NO2)-Asp-NH2] (H-[2Abz]LVA[Nle]S[Tyr(3-NO2)]D-NH2), the “substrate or not substrate for Der pI” value is “NM”.

For the molecule `CCCC[C@H](NC(=O)c1ccccc1N)C(=O)N[C@@H](CO)C(=O)N[C@@H](Cc1ccc(O)c([N+](=O)[O-])c1)C(=O)N[C@@H](CC(=O)O)C(N)=O` [Abz-Nle-Ser-Tyr(NO2)-Asp-NH2] (H-[2Abz][Nle]S[Tyr(3-NO2)]D-NH2), the “substrate or not substrate for Der pI” value is on record as “NS”.

Take `CCCC[C@H](NC(=O)[C@H](C)NC(=O)[C@@H](NC(=O)[C@H](Cc1ccccc1)NC(=O)c1ccccc1N)C(C)C)C(=O)N[C@@H](CO)C(=O)N[C@@H](Cc1ccc(O)c([N+](=O)[O-])c1)C(=O)N[C@@H](CC(=O)O)C(N)=O` [Abz-Phe-Val-Ala-Nle-Ser-Tyr(NO2)-Asp-NH2] (H-[2Abz]FVA[Nle]S[Tyr(3-NO2)]D-NH2): the “substrate or not substrate for Der pI” value is reported as “NM”.

For `CC(C)CC[C@H](NC(=O)[C@H](C)NC(=O)[C@@H]1Cc2ccccc2CN1C(=O)c1ccccc1N)C(=O)N[C@@H](CO)C(=O)N[C@@H](Cc1ccc(O)c([N+](=O)[O-])c1)C(=O)N[C@@H](CC(=O)O)C(N)=O` [Abz-Tic-Ala-hLeu-Ser-Tyr(NO2)-Asp-NH2] (H-[2Abz][Tic]A[hLeu]S[Tyr(3-NO2)]D-NH2), the “substrate or not substrate for Der pI” value is on record as “NS”.

Take `CCCC[C@H](NC(=O)[C@H](C)NC(=O)[C@@H](NC(=O)[C@H](Cc1ccc(O)cc1)NC(=O)c1ccccc1N)C(C)C)C(=O)N[C@@H](CO)C(=O)N[C@@H](Cc1ccc(O)c([N+](=O)[O-])c1)C(=O)N[C@@H](CC(=O)O)C(N)=O` [Abz-Tyr-Val-Ala-Nle-Ser-Tyr(NO2)-Asp-NH2] (H-[2Abz]YVA[Nle]S[Tyr(3-NO2)]D-NH2): the “substrate or not substrate for Der pI” value is “NM”.

Regarding `CC(C)CC[C@H](NC(=O)[C@@H](CCC(N)=O)NC(=O)[C@@H](NC(=O)c1ccccc1N)C(C)C)C(=O)N[C@@H](CO)C(=O)N[C@@H](Cc1ccc(O)c([N+](=O)[O-])c1)C(=O)N[C@@H](CC(=O)O)C(N)=O` [Abz-Va1-DGln-hLeu-Ser-Tyr(NO2)-Asp-NH2] (H-[2Abz]V[dQ][hLeu]S[Tyr(3-NO2)]D-NH2), the “substrate or not substrate for Der pI” value was “NS”.

Consider `CC(C)CC[C@H](NC(=O)[C@H](Cc1ccc2ccccc2c1)NC(=O)[C@@H](NC(=O)c1ccccc1N)C(C)C)C(=O)N[C@@H](CO)C(=O)N[C@@H](Cc1ccc(O)c([N+](=O)[O-])c1)C(=O)N[C@@H](CC(=O)O)C(N)=O` [Abz-Val-2Nal-hLeu-Ser-Tyr(NO2)-Asp-NH2] (H-[2Abz]V[2Nal][hLeu]S[Tyr(3-NO2)]D-NH2), for which the “substrate or not substrate for Der pI” value is reported as “NS”.

As to `CC(C)CC[C@H](NC(=O)[C@H](Cc1cccnc1)NC(=O)[C@@H](NC(=O)c1ccccc1N)C(C)C)C(=O)N[C@@H](CO)C(=O)N[C@@H](Cc1ccc(O)c([N+](=O)[O-])c1)C(=O)N[C@@H](CC(=O)O)C(N)=O` [Abz-Val-3pyr-hLeu-Ser-Tyr(NO2)-Asp-NH2] (H-[2Abz]V[3Pal][hLeu]S[Tyr(3-NO2)]D-NH2), the “substrate or not substrate for Der pI” value was “NS”.

For `CC(C)CC[C@H](NC(=O)C1(NC(=O)[C@@H](NC(=O)c2ccccc2N)C(C)C)CCCCC1)C(=O)N[C@@H](CO)C(=O)N[C@@H](Cc1ccc(O)c([N+](=O)[O-])c1)C(=O)N[C@@H](CC(=O)O)C(N)=O` [Abz-Val-ACH-hLeu-Ser-Tyr(NO2)-Asp-NH2] (H-[2Abz]V[Ac6c][hLeu]S[Tyr(3-NO2)]D-NH2), the “substrate or not substrate for Der pI” value is “NS”.

`CC(C)CC[C@H](NC(=O)C1(NC(=O)[C@@H](NC(=O)c2ccccc2N)C(C)C)CCCC1)C(=O)N[C@@H](CO)C(=O)N[C@@H](Cc1ccc(O)c([N+](=O)[O-])c1)C(=O)N[C@@H](CC(=O)O)C(N)=O` [Abz-Val-ACP-hLeu-Ser-Tyr(NO2)-Asp-NH2] (H-[2Abz]V[Ac5c][hLeu]S[Tyr(3-NO2)]D-NH2): the “substrate or not substrate for Der pI” value is given as “NS”.

As for `CC(C)[C@H](NC(=O)c1ccccc1N)C(=O)N[C@@H](C)C(=O)NC1(C(=O)N[C@@H](CO)C(=O)N[C@@H](Cc2ccc(O)c([N+](=O)[O-])c2)C(=O)N[C@@H](CC(=O)O)C(N)=O)CCCCC1` [Abz-Val-Ala-ACH-Ser-Tyr(NO2)-Asp-NH2] (H-[2Abz]VA[Ac6c]S[Tyr(3-NO2)]D-NH2), the “substrate or not substrate for Der pI” value was “NS”.

On to `CC(C)[C@H](NC(=O)c1ccccc1N)C(=O)N[C@@H](C)C(=O)NC1(C(=O)N[C@@H](CO)C(=O)N[C@@H](Cc2ccc(O)c([N+](=O)[O-])c2)C(=O)N[C@@H](CC(=O)O)C(N)=O)CCCC1` [Abz-Val-Ala-ACP-Ser-Tyr(NO2)-Asp-NH2] (H-[2Abz]VA[Ac5c]S[Tyr(3-NO2)]D-NH2), for which the “substrate or not substrate for Der pI” value is “NS”.

Turning to `CCCC[C@@H](NC(=O)[C@H](C)NC(=O)[C@@H](NC(=O)c1ccccc1N)C(C)C)C(=O)N[C@@H](CO)C(=O)N[C@@H](Cc1ccc(O)c([N+](=O)[O-])c1)C(=O)N[C@@H](CC(=O)O)C(N)=O` [Abz-Val-Ala-DNle-Ser-Tyr(NO2)-Asp-NH2] (H-[2Abz]VA[dNle]S[Tyr(3-NO2)]D-NH2), the “substrate or not substrate for Der pI” value is recorded as “NS”.

On to `CC(C)[C@H](NC(=O)c1ccccc1N)C(=O)N[C@@H](C)C(=O)N1C[C@H](O)C[C@H]1C(=O)N[C@@H](CO)C(=O)N[C@@H](Cc1ccc(O)c([N+](=O)[O-])c1)C(=O)N[C@@H](CC(=O)O)C(N)=O` [Abz-Val-Ala-Hyp-Ser-Tyr(NO2)-Asp-NH2] (H-[2Abz]VA[Hyp]S[Tyr(3-NO2)]D-NH2), for which the “substrate or not substrate for Der pI” value is “NS”.

For the molecule `CCCC[C@H](NC(=O)[C@H](C)NC(=O)[C@@H](NC(=O)c1ccccc1N)C(C)C)C(=O)N[C@@H](CO)C(=O)N[C@@H](C)C(=O)N[C@@H](CC(=O)O)C(N)=O` [Abz-Val-Ala-Nle-Ser-Ala-Asp-NH2] (H-[2Abz]VA[Nle]SAD-NH2), the “substrate or not substrate for Der pI” value was “NM”.

Consider `CCCC[C@H](NC(=O)[C@H](C)NC(=O)[C@@H](NC(=O)c1ccccc1N)C(C)C)C(=O)N[C@@H](CO)C(=O)N[C@@H](CCCCN)C(=O)N[C@@H](CC(=O)O)C(N)=O` [Abz-Val-Ala-Nle-Ser-Lys-Asp-NH2] (H-[2Abz]VA[Nle]SKD-NH2), for which the “substrate or not substrate for Der pI” value is recorded as “NM”.

As to `CCCC[C@H](NC(=O)[C@H](C)NC(=O)[C@@H](NC(=O)c1ccccc1N)C(C)C)C(=O)N[C@@H](CO)C(N)=O` [Abz-Val-Ala-Nle-Ser-NH2] (H-[2Abz]VA[Nle]S-NH2), the “substrate or not substrate for Der pI” value is “NM”.

As for `CCCC[C@H](NC(=O)[C@H](C)NC(=O)[C@@H](NC(=O)c1ccccc1N)C(C)C)C(=O)N[C@@H](CO)C(=O)N[C@@H](Cc1ccccc1)C(=O)N[C@@H](CC(=O)O)C(N)=O` [Abz-Val-Ala-Nle-Ser-Phe-Asp-NH2] (H-[2Abz]VA[Nle]SFD-NH2), the “substrate or not substrate for Der pI” value is “NM”.

(Values after patent US6528275B1, “Substrates and inhibitors of proteolytic enzymes” (Peptide Therapeutics Limited, priority 1996, dated 2003).)
